Measured values as given in ChEMBL document CHEMBL1949553, “Microbial transformation of deoxyandrographolide and their inhibitory activity on LPS-induced NO production in RAW 264.7 macrophages” (Bioorg Med Chem Lett, 2012).

How the values were obtained:
[1] = tested on: RAW264.7; test: Antiinflammatory activity in mouse RAW264.7 cells assessed as inhibition of LPS-induced NO production after 24 hrs by Griess method; type: functional, cell-based; details: RAW264.7, 24 h
[2] = Cytotoxicity against mouse RAW264.7 cells assessed as cell viability at 100 uM after 24 hrs by MTT assay; type: cell-based; details: read-out: Activity

Row | SMILES | IC50 [1] | viability at 24 h, 100 µM [2]
1 | CN(C)c1ccc(O)c2c1C[C@H]1C[C@H]3[C@H](N(C)C)C(O)=C(C(N)=O)C(=O)[C@@]3(O)C(O)=C1C2=O [MINOCYCLINE] | 34.9 µM | 100%
2 | C=C1CC[C@@H]2[C@](C)(CO)[C@H](O)CC[C@@]2(C)[C@@H]1C/C=C1/C(=O)OC[C@@H]1O | 26.5 µM | 65.2%
3 | C=C1CC[C@@H]2[C@](C)(CO)[C@H](O)CC[C@@]2(C)[C@]1(O)/C=C/C1=CCOC1=O | 97.2 µM | 98.6%
4 | C=C1CC[C@H]2[C@@](C)(CCC(=O)[C@@]2(C)CO)[C@@H]1/C=C/C1=CCOC1=O | 75.3 µM | 104%
5 | C[C@@]12CCC(=O)[C@@](C)(CO)[C@H]1CC=C(CO)[C@H]2CCC1=CCOC1=O | 71.3 µM | 104%
6 | C=C1CC[C@@H]2[C@](C)(CO)[C@H](O)CC[C@@]2(C)[C@@H]1CCC1=CCOC1=O [DEOXYANDROGRAPHOLIDE] | 21 µM | 100%
7 | C=C1CC[C@@H]2[C@](C)(CO)[C@H](O)C[C@@H](O)[C@@]2(C)[C@@H]1CCC1=CCOC1=O | > 100 µM | 101%
8 | C=C1CC[C@@H]2[C@](C)(CO)[C@H](O)CC[C@@]2(C)[C@]1(O)CCC1=CCOC1=O | > 100 µM | 86%
9 | C=C1CC[C@@H]2[C@](C)(COC3O[C@H](CO)[C@@H](O)[C@H](O)[C@H]3O)CCC[C@@]2(C)[C@@H]1CCC1=CCOC1=O (some centres not stated) | > 100 µM | 81.4%
10 | C=C1CC[C@H]2[C@@](C)([C@H](O)CC(=O)[C@@]2(C)CO)[C@@H]1CCC1=CCOC1=O | 61.9 µM | 100%
11 | C[C@]1(CO)[C@H]2CC[C@@]3(CO3)[C@@H](CCC3=CCOC3=O)[C@]2(C)CC[C@H]1O | > 100 µM | 88.4%
12 | C=C1CC[C@H]2[C@@](C)(C=CC(=O)[C@@]2(C)CO)[C@@H]1CCC1=CCOC1=O | 10 µM | 100%
13 | C[C@@]12CCC(=O)[C@@](C)(CO)[C@H]1CC[C@@]1(CO1)[C@H]2CCC1=CCOC1=O | 89.2 µM | 63.1%
14 | C=C1CC[C@@H]2[C@](C)(CO)CCC[C@@]2(C)[C@@H]1CCC1=CCOC1=O [ANDROGRAPANIN] | 11.6 µM | 99.8%
15 | C[C@@]12CCC(=O)[C@@](C)(CO)[C@H]1CCC(CO)=C2CCC1=CCOC1=O | 79 µM | 101%
16 | C[C@]1(CO)[C@H]2CC=C(CO)[C@@H](/C=C/C3=CCOC3=O)[C@]2(C)CC[C@H]1O | 39.1 µM | 106%
17 | C[C@@]1(CO)[C@H](O)CC[C@@]2(C)C(CCC3=CCOC3=O)=C(C=O)CC[C@H]12 | > 100 µM | 99.7%
18 | C=C1CC[C@@H]2[C@](C)(CO)[C@H](O)CC[C@@]2(C)[C@@H]1C/C=C(/C(=O)O)[C@@H](O)CO | > 100 µM | 104%
19 | C=C1[C@H](O)C[C@H]2[C@@](C)(CCC(=O)[C@@]2(C)CO)[C@@H]1CCC1=CCOC1=O | 58.2 µM | 102%
20 | C[C@@]1(CO)[C@H](O)CC[C@@]2(C)C(CCC3=CCOC3=O)=C(CO)CC[C@H]12 | > 100 µM | 91.1%
21 | C=C1[C@@H](CCC2=CCOC2=O)[C@]2(C)CC[C@@H](O)[C@@](C)(CO)[C@H]2C[C@@H]1O | > 100 µM | 89.1%
22 | C=C1CC[C@H]2[C@@](C)(C[C@H](O)C(=O)[C@@]2(C)CO)[C@@H]1CCC1=CCOC1=O | 12.2 µM | 103%
23 | C=C1CC[C@H]2[C@@](C)(CCC(=O)[C@@]2(C)CO)[C@@H]1CCC1=CCOC1=O | 10.1 µM | 110%
24 | C=C1CC[C@@H]2[C@](C)(CO)[C@H](O)CC[C@@]2(C)[C@@H]1C/C=C1/C(=O)OC[C@H]1O [ANDROGRAPHOLIDE] | 6.96 µM | 49.6%
25 | C=C1CC[C@@H]2[C@](C)(CO)C(=O)CC[C@@]2(C)[C@]1(O)CCC1=CCOC1=O | 28.4 µM | 87.5%
26 | CO[C@]1(CO)CC[C@@H]2[C@](C)(CO)[C@H](O)CC[C@@]2(C)[C@@H]1CCC1=CCOC1=O | > 100 µM | 100%
